Reference: PMC8222254, “Self-assembly of an anion receptor with metal-dependent kinase inhibition and potent in vitro anti-cancer properties” (Nature Communications, 2021)
Several values for one entry are separate records, joined by “and”; a condition that tells them apart may be missing. Identical values can stand only once.

Tests used:
Experiment in all cases: Kinase inhibition screen, cell-free 33P ATP assay at 10 μM
Assay type in all cases: biochemical
[1] = biological target: T1, 140 purified human kinases (Homo sapiens, UniProt O75385)
T1 sequence (O75385 1-1050): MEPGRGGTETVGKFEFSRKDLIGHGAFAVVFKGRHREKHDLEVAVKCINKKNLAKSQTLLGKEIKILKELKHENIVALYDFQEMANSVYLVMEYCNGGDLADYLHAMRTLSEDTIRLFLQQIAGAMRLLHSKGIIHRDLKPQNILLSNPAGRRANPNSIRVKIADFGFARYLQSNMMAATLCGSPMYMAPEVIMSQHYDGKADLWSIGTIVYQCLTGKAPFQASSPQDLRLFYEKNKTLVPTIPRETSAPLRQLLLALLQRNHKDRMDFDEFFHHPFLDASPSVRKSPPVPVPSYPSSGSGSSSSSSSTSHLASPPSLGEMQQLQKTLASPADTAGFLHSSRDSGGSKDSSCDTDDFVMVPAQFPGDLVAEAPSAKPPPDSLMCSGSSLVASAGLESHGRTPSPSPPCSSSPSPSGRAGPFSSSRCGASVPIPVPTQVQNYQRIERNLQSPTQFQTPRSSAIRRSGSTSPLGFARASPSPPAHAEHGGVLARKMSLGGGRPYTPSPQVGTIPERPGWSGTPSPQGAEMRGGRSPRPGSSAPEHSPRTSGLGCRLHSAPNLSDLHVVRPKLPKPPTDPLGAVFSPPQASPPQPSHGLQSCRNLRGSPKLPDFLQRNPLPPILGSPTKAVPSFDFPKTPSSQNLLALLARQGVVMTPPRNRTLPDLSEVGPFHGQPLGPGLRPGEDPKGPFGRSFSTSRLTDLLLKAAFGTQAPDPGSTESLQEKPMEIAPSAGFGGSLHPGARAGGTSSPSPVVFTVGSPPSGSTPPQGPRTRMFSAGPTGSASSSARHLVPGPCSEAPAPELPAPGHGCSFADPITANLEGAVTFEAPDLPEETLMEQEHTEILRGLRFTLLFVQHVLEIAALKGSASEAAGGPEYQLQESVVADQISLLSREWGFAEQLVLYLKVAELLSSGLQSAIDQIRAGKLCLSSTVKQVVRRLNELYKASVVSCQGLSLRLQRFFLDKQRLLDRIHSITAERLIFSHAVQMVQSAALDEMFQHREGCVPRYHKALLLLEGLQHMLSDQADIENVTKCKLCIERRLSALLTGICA
Procedure: (§1) [L2Cu3]^6+ and [L2Zn3]^6+ were submitted to the MRC Protein Phosphorylation and Ubiquitination Unit International Centre for Kinase Profiling (University of Dundee) and tested in duplicate (at 10 μM) against a series of 140 purified human kinases in a cell-free kinase assay using ^33P ATP[55],[56]. The kinase gene IDs from the screen were then translated into common IDs (HGNC symbol) using biomaRt package[57],[58] in R[59] and R Studio[60] and used as input to the KinMap programme.

[2] = biological target: 140 purified human kinases (Homo sapiens, UniProt Q15303)
Chain of 140 purified human kinases (Homo sapiens, UniProt Q15303) (Q15303 26-1308): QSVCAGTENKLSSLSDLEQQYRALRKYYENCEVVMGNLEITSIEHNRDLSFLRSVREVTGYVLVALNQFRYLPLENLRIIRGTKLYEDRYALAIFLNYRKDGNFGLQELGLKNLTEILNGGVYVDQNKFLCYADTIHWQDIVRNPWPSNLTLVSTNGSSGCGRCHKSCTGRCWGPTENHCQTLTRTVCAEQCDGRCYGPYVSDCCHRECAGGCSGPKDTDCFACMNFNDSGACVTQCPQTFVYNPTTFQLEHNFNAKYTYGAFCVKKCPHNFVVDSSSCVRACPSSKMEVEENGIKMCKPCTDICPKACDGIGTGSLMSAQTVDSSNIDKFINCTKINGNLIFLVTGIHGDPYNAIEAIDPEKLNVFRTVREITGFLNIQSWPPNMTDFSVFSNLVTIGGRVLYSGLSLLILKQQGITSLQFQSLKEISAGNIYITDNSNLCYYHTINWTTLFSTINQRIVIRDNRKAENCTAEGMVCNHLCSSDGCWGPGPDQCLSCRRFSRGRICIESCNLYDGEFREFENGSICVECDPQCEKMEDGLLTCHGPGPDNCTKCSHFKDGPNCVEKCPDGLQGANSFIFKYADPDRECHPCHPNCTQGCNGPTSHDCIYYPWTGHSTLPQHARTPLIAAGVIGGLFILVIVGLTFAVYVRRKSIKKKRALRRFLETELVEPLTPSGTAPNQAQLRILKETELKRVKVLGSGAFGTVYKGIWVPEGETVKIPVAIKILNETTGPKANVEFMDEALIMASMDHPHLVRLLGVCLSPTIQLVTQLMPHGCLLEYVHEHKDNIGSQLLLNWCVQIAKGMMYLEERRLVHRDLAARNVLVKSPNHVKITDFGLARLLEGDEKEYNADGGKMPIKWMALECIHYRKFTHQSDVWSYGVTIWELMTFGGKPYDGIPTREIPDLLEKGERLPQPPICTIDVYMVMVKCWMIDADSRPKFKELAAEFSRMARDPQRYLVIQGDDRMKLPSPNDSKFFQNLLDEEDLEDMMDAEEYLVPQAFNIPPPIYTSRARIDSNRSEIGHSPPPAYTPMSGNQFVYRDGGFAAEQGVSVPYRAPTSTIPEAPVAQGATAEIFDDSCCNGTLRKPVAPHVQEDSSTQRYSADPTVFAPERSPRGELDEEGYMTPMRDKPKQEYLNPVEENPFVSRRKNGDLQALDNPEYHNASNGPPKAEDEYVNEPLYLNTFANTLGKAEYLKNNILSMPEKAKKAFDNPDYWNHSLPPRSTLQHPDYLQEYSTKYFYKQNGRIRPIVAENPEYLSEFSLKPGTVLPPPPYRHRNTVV
Procedure: as §1

[3] = biological target: T2, 140 purified human kinases (Homo sapiens, UniProt Q8IWQ3)
T2 sequence (Q8IWQ3 1-736): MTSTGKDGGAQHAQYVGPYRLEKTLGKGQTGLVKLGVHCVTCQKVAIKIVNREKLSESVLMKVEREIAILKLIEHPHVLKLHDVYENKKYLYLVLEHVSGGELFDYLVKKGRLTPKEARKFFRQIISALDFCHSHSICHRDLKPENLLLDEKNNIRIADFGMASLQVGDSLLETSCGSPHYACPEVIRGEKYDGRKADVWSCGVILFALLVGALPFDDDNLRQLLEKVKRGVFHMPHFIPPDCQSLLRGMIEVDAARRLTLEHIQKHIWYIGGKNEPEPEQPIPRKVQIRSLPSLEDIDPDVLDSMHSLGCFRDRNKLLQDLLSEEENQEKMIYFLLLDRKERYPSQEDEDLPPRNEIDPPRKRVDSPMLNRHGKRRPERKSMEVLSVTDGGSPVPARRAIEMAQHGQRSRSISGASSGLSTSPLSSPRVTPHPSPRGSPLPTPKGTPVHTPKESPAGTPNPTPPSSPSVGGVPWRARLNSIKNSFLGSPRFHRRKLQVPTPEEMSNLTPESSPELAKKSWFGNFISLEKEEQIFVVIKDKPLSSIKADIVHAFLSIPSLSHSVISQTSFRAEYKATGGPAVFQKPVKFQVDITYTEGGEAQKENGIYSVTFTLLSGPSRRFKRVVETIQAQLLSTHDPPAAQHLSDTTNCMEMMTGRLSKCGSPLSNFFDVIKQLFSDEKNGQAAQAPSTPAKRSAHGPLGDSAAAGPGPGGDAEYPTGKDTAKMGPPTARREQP
Procedure: as §1

[4] = biological target: T3, 140 purified human kinases (Homo sapiens, UniProt Q8TD08)
T3 sequence (Q8TD08 1-544): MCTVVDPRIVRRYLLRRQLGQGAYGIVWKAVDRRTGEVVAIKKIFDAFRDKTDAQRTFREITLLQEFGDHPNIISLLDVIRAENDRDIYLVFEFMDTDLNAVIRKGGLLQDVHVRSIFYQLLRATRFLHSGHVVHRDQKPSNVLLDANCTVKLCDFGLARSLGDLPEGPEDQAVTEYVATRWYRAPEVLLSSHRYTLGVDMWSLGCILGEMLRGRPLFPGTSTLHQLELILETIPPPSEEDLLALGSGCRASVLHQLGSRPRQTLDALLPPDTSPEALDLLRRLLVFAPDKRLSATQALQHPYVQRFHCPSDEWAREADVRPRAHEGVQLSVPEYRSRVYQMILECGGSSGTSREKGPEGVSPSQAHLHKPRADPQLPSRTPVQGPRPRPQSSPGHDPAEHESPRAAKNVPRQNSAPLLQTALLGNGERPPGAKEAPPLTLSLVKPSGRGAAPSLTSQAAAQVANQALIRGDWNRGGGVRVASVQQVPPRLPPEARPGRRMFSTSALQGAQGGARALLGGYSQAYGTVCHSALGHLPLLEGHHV
Procedure: as §1

[5] = biological target: 140 purified human kinases (Homo sapiens, UniProt Q9BYT3)
Chain of 140 purified human kinases (Homo sapiens, UniProt Q9BYT3) (Q9BYT3 whole entry): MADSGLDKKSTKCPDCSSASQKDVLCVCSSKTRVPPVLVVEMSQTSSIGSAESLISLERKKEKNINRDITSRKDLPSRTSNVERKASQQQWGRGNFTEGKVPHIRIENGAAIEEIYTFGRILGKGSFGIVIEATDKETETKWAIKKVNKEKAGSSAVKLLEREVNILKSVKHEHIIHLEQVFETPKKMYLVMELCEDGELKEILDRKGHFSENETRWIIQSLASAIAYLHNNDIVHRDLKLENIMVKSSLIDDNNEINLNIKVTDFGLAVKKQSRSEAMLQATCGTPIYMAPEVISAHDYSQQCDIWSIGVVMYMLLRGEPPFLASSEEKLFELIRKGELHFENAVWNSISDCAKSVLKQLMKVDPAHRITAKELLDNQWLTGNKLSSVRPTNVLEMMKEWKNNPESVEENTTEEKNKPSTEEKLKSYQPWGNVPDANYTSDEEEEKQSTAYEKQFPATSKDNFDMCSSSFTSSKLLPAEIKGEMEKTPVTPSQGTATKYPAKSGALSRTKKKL
Procedure: as §1

[Cu+2].[Cu+2].[Cu+2].c1ccc(-c2csc(NCCN(CCNc3nc(-c4ccccn4)cs3)CCNc3nc(-c4ccccn4)cs3)n2)nc1.c1ccc(-c2csc(NCCN(CCNc3nc(-c4ccccn4)cs3)CCNc3nc(-c4ccccn4)cs3)n2)nc1 [[L2Cu3]6+]
% Inhibition Run 1 ([1]; ULK1): 75.8% | % Inhibition Run 2 ([1]; ULK1): 76.3% | % Inhibition, Mean ([1]; ULK1): 76% | mean % activity ([1]; ULK1): 24% | % activity ([1]; ULK1, Run 1): 24.2% | % activity ([1]; ULK1, Run 2): 23.7% | % Inhibition Run 1 ([2]; HER4): 32.7% | % Inhibition Run 2 ([2]; HER4): 23.3% | % Inhibition, Mean ([2]; HER4): 28% | mean % activity ([2]; HER4): 72% | % activity ([2]; HER4, Run 1): 67.3% | % activity ([2]; HER4, Run 2): 76.7% | % Inhibition Run 1 ([3]; BRSK2): 77.8% | % Inhibition Run 2 ([3]; BRSK2): 75.3% | % Inhibition, Mean ([3]; BRSK2): 77% | mean % activity ([3]; BRSK2): 23% | % activity ([3]; BRSK2, Run 1): 22.2% | % activity ([3]; BRSK2, Run 2): 24.7% | % Activation, Mean value ([4]; ERK8): 27% | % Inhibition Run 1 ([4]; ERK8): -16.9% | % Inhibition Run 2 ([4]; ERK8): -37.3% | % Inhibition, Mean ([4]; ERK8): -27% | mean % activity ([4]; ERK8): 127% | % activity ([4]; ERK8, Run 1): 116.9% | % activity ([4]; ERK8, Run 2): 137.3% | % Activity Run 1 ([4]; ERK8, 10 µM): 116.90% | % Activity Run 2 ([4]; ERK8, 10 µM): 137.30% | % Activation, Mean value ([5]; STK33): 7% | % Inhibition Run 1 ([5]; STK33): -1.8% | % Inhibition Run 2 ([5]; STK33): -12.3% | % Inhibition, Mean ([5]; STK33): -7% | mean % activity ([5]; STK33): 107% | % activity ([5]; STK33, Run 1): 101.8% | % activity ([5]; STK33, Run 2): 112.3%

CC(=O)[O-].CC(=O)[O-].CC(=O)[O-].CC(=O)[O-].CC(=O)[O-].CC(=O)[O-].[Zn+2].[Zn+2].[Zn+2].c1ccc(-c2csc(NCCN(CCNc3nc(-c4ccccn4)cs3)CCNc3nc(-c4ccccn4)cs3)n2)nc1.c1ccc(-c2csc(NCCN(CCNc3nc(-c4ccccn4)cs3)CCNc3nc(-c4ccccn4)cs3)n2)nc1 [[L2Zn3]6+]
% Inhibition, Mean ([1]; ULK1): 30% | mean % activity ([1]; ULK1): 70% | % activity ([1]; ULK1, duplicate runs): 58% and 82% | % Inhibition, Mean ([2]; HER4): 3.65% | mean % activity ([2]; HER4): 96% | % activity ([2]; HER4, duplicate runs): 88% and 105% | % Inhibition, Mean ([3]; BRSK2): 37% | % Inhibition, Run 1 / Run 2 ([3]; BRSK2): 44% and 30% | mean % activity ([3]; BRSK2): 63% | % activity ([3]; BRSK2, duplicate runs): 56% and 70% | % Inhibition, Mean ([4]; ERK8): 15% | % Inhibition, Run 1 / Run 2 ([4]; ERK8): 15% | mean % activity ([4]; ERK8): 85% | % activity ([4]; ERK8, duplicate runs): 86% and 85% | % Inhibition, Mean ([5]; STK33): 6.55% | % Inhibition, Run 1 / Run 2 ([5]; STK33): 3.3% and 10% | mean % activity ([5]; STK33): 93% | % activity ([5]; STK33, duplicate runs): 97% and 90%
